Literature values as cited in patent US7977431B2, “Dithiocarbamic esters” (LANXESS Deutschland GmbH, priority 2002, dated 2011).

Conditions: for pKa value: parent form Z-H of substituent Z; for pKa value e Z-H: pKa of the protonated substituent Z of the regulator, not of the regulator itself

pKa value	pKa value e Z-H	Compound
	17.0	C/C(Cl)=C/CSC(=S)n1cccc1 [Regulator compound (1), 3-chloro-2-butenyl 1H-pyrrole-1-carbodithioate]
14.0		c1cn[nH]c1 [pyrazole]
	5.1	CCN(C(=S)SC(C(=O)OC)c1ccccc1)c1ccccc1 (stereo not shown) [Regulator compound (5), Methyl ({[ethyl-(phenyl)amino]-carbonothioyl}-sulphanyl)(phenyl) acetate, reference compound]
	5.1	CCN(C(=S)SC/C=C(/C)Cl)c1ccccc1 [Regulator compound (6), reference compound]
	14.5	C/C(Cl)=C/CSC(=S)n1ccnc1 [Regulator compound (2), 3-chloro-2-butenyl 1H-imidazole-1-carbodithioate]
	5.1	CCN(C(=S)SC(C)C(=O)OC)c1ccccc1 (stereo not shown) [Regulator compound (4), Methyl 2-({[ethyl-(phenyl)amino]-carbonothioyl}-sulphanyl)-propanoate, reference compound]
	5.1	CCN(C(=S)SCc1ccccc1)c1ccccc1 [Regulator compound (3), Benzyl ethyl-(phenyl)dithio-carbamate, reference compound]

Second part, the compound before the results:

Compound	pKa value	pKa value e Z-H
CC(=O)Nc1ccccc1 [N-phenylacetamide]	16.6	
c1ccc2c(c1)[nH]c1ccccc12 [carbazole]	17	
O=C1CCCCN1 [2-piperidinone]	16.6	
O=C1CCCCCN1 [2-azepanone]	16.6	
O=C1CCCCCCN1 [2-azocanone]	16.6	
N-(methyl/ethyl)acetamide	16.6	
